The subject of this test is mutant HTT protein (mHTT). Description: Homogeneous Time Resolved Fluorescence (HTRF) assay for HTT lowering. Type of test: cell-based. The conditions noted are these: reduction of mHTT in Huntington patient human cells (GENEAe020-A cell line), 48 hours incubation, mean from three replicates. The protocol: Homogeneous Time Resolved Fluorescence for HTT lowering
The HTRF assay was adapted from Weiss et al. (Analytical Biochemistry Volume 395, Issue 1, 1 Dec. 2009, Pages 8-15 and Analytical Biochemistry Volume 410, 2011, Pages 304-306) to cells from GENEAe020-A cell line (https://hpscreg.eu/cell-line/GENEAe020-A).
Compounds were tested for the effect of mutant HTT levels in Huntington patient human cells (GENEAe020-A cell line) using Homogeneous Time Resolved Fluorescence (HTRF) directed towards mutant HTT protein (mHTT). The GENEAe020-A cell line was derived by Genea Biocells from human blastocysts of HD donors. After assessing viability, cells were plated into 384 well collagen coated plates in growth media. Once cells adhered, media was removed and test compounds dissolved in DMSO were diluted with buffer solution and added to the adherent cells. Controls included experiments with no cells, DMSO with no compound, and Hsp90 inhibitor control. Cells were incubated with compounds and controls for 48 hours. Then, the cells were lysed and transferred to an assay plate containing HTRF labeled monoclonal antibodies developed by Paul Patterson (Ko et al., Brain Research Bulletin, Volume 56, Numbers 3 and 4, 2001, Pages 319-329) which recognize specific areas of the HTT protein. The terbium labeled “donor” antibody (2B7) binds to the N-terminus of the HTT protein and the Alexa488 labeled “acceptor” antibody (MW1) is specific for the polyglutamine region of the protein. Binding of the acceptor labeled antibody is more efficient for the extended polyglutamine repeats of mutant HTT protein which translates into a signal boost which enables the specific measurement of mutant HTT protein level. The HTRF donor and acceptor detection reagents were incubated with the cell lysate and the ratio between the signals of the two fluorophores is indicative of the relative quantities of mHTT.
A general note: TR-FRET usually uses a lanthanide donor and a delayed reading to cut background.

`COc1cc(-c2cc(=O)n3cc([C@@H]4CCNC[C@@H]4F)sc3n2)nn2cc(C)nc12` [Example 34, 7-(8-methoxy-2-methyl-imidazo[1,2-b]pyridazin-6-yl)-2-[(3R,4R)-3-fluoro-4-piperidyl]thiazolo[3,2-a]pyrimidin-5-one]: the response was half-maximal at 22 nM (EC50).

On to `Cc1cn2nc(-c3cc(=O)n4cc(N5CCN6CCC[C@@H]6C5)sc4n3)cc(C(F)(F)F)c2n1` [Example 25, 7-[2-methyl-8-(trifluoromethyl)imidazo[1,2-b]pyridazin-6-yl]-2-[(8aR)-3,4,6,7,8,8a-hexahydro-1H-pyrrolo[1,2-a]pyrazin-2-yl]thiazolo[3,2-a]pyrimidin-5-one], for which a half-maximal effect (EC50) was put at 454 nM. This EC50 is about 21-fold higher than that of the compound before.

The record behind these values is patent publication US20240018163A1, “NEW THIAZOLOPYRIMIDINONE DERIVATIVES” (Hoffmann-La Roche Inc., priority 2021, published 2024).
